{"source": "patent US20210171912A1", "about": "“METHOD FOR SCALABLE SKELETAL MUSCLE LINEAGE SPECIFICATION AND CULTIVATION” (Memphis Meats, Inc., priority 2013, published 2021)", "key": {"undifferentiated 02KM": {"test_system": "undifferentiated 02KM", "test": "Tolerance of undifferentiated 02KM to 5AC", "assay_type": "cell-based, porcine", "protocol": "5AC effects. 5AC exposure prior to, during, and following E2-mediated induction of ‘MyoDER’ was introduced to enable terminal-differentiation of 02KM from myocytes into refractive, filamentous myotubes. The murine C2C12 cell line was used as positive control to screen for optimal conditions for terminal differentiation by 02KM. […] 5AC, a small-molecule epigenetic modulator, was determined previously to enable skeletal muscle transcription in cell lines non-permissive to myogenesis. Moreover, 5AC exposure was further determined to enhance terminal differentiation by the C2C12 cell line."}, "murine C2C12 myoblast": {"test_system": "murine C2C12 myoblast", "test": "Terminal differentiation of C2C12 myoblasts scored by size and extent of myotube formation", "assay_type": "cell-based", "details": "low-mitogen differentiation cultures (2% horse serum/DMEM)"}, "02K cell line [1]": {"test_system": "02K cell line", "test": "Cell survival of differentiating 02K (phase contrast, cell adhesion, CPP32 cleavage, Annexin V)", "assay_type": "cell-based, porcine", "details": "SRM basal medium without hLIF, DOX, PD032591 and PD173074; N-2 and B-27", "protocol": "Without being bound by theory or limited by any specific representative example, it was observed that simultaneous withdrawal of both DOX and the GSK3P inhibitor CHIR99021 from the culture medium supplemented with N-2 and B-27 serum replacements precipitates massive cell death of differentiating 02K parental line within 48 h hours. Withdrawal of DOX in the presence of CHIR99021 enabled survival of the differentiating 02K. Death by differentiating 02K cells in the absence of a GSK3P inhibitor and reciprocal survival in the presence thereof was confirmed by morphology, cell adhesion assay, cleaved caspase-3 accumulation, and Annexin V labeling. […] WNT signaling plays crucial roles in both mesoderm specification from the undifferentiated ground-state pluripotency, pre-myogenic enrichment from unpatterned mesoderm and terminal differentiation of committed myocytes both in vivo and in vitro. In agreement, extended culture of the 02K line in the absence of DOX, and in the presence of a GSK3P inhibitor, supported differentiation toward the pre-myogenic paraxial mesoderm, as evidenced by the expression of PAX3 and concomitant loss of POU5F1 and KLF4 expression.\nCHIR99021 inhibition 1 cell death. […] 1. […]\nAn axis of apoptosis and differentiation is modulated by CHIR99021. […] TUBA is detected an internal protein loading control."}, "CTNNB1": {"test_system": "CTNNB1", "test": "Western blot of CTNNB1 and p-CTNNB1 in differentiating 02K", "assay_type": "cell-based, porcine", "details": "24 h differentiation milieu transition", "protocol": "Cultures were exposed to 50 nM Calyculin A and 30 μM MG-132 for 3 hours prior to harvest to stabilize detectable levels of p-CTNNB1 for comparative analysis.\n(§1) CHIR99021 inhibition 1 cell death. […] 1. As CHIR99021 repressed cell death, supported differentiation toward paraxial mesoderm by the differentiating 02K cell line and enhanced terminal differentiation by the C2C12 cell line, precedent was established to retain the compound in all culture stages.\n(§2) CHIR99021 stabilizes CTNNB1 and supports differentiation from the ground state. […] TUBA detected as an internal protein loading control. FIG. 13A indicates ratios of p-CTNNB1/CTNNB1 bands. FIG. 13B indicates ratios of CTNNB1/TUBA bands. […] TUBA detection is shown as an internal protein loading control."}, "02K cell line [2]": {"test_system": "02K cell line", "test": "Differentiation marker Western blot (PAX3, POU5F1, KLF4) in differentiating 02K", "assay_type": "cell-based, porcine", "details": "CHIR99021 supplemented basal medium, absence of DOX", "from_the_text": "Expression levels of pluripotency markers, POU5F1 and KLF4, and the pre-myogenic paraxial mesoderm marker PAX3 in 02K cultures differentiated from the ground state in the presence of CHIR99021.\nas §1, §2"}, "02KM cells (MyoDER)": {"test_system": "02KM cells (MyoDER)", "test": "02KM myogenic induction by E2 activation of MyoDER", "assay_type": "cell-based, porcine", "details": "10 μM E2, 2 d induction", "experimental": "02KM myogenic induction. 02KM cells were seeded onto culture dishes coated with poly-D lysine, murine laminin and [sequence] at a density of 4.1×10^3 cells/cm^2 and cultured under 5% O2 in self-renewal medium for 3 d."}, "piPSC-derived myotubes": {"test_system": "piPSC-derived myotubes", "test": "Calcium transient activity (Fluo-4 AM) in piPSC-derived myotubes", "assay_type": "cell-based, porcine", "details": "10 mM caffeine; d6 myotubes; field of view", "from_the_text": "Spontaneous and Stimuli-Induced Calcium Transient Activity in piPSC-derived myotubes. To quantify contraction cycles, myotube cultures were stained with Fluo-4 AM calcium dye, washed, and image sequences were captured by confocal microscopy. Dynamic signaling events of an entire field of view (FOV) or single cells were traced and plotted over the imaging course. [s]=seconds."}}, "data": [{"smiles": "Nc1ncn([C@@H]2O[C@H](CO)[C@@H](O)[C@H]2O)c(=O)n1", "note": "[5AC, 5-Aza-Cytidine]", "values": [{"measurement": "highest dose tolerated", "setting": "undifferentiated 02KM", "result": 250, "unit": "nM"}, {"measurement": "MYF5 expression in 02KM derived myocytes", "setting": "02KM cell line; 5AC 72 hours preceding DOX withdrawal and 48 hours during E2 induction", "result": "MYF5 expression was enhanced"}, {"measurement": "myotube morphology during terminal differentiation", "setting": "02KM cell line; 5AC during expansion and induction regimens", "result": "formed refractive, anisotropic myotubes"}]}, {"smiles": "Cc1c[nH]c(-c2cnc(NCCNc3ccc(C#N)cn3)nc2-c2ccc(Cl)cc2Cl)n1", "note": "[CHIR99021]", "values": [{"measurement": "terminal differentiation of C2C12 into multi-nucleated myotubes", "setting": "murine C2C12 myoblast", "result": "enhanced the terminal differentiation of the myogenic murine C2C12 cell line into multi-nucleated myotubes"}, {"measurement": "cell survival during differentiation", "setting": "02K cell line [1]", "result": "supported both cell survival during differentiation"}, {"measurement": "CTNNB1 stabilization and phosphorylation status", "setting": "CTNNB1", "result": "stabilizes and modulates the phosphorylation status of the GSK3P substrate, CTNNB1"}, {"measurement": "pre-myogenic paraxial mesoderm lineage specification (PAX3 expression)", "setting": "02K cell line [2]", "result": "supported pre-myogenic paraxial mesoderm lineage specification of differentiating 02K"}]}, {"smiles": "C[C@]12CC[C@@H]3c4ccc(O)cc4CC[C@H]3[C@@H]1CC[C@@H]2O", "note": "[E2, 17-β Estradiol]", "values": [{"measurement": "myogenic lineage specification (spindle-like morphology, MYOG, NCAM)", "setting": "02KM cells (MyoDER)", "result": "myogenic lineage specification following 2 d induction culture was confirmed"}]}, {"smiles": "Cn1c(=O)c2c(ncn2C)n(C)c1=O", "note": "[caffeine]", "values": [{"measurement": "calcium transient activation", "setting": "piPSC-derived myotubes", "result": "FOV calcium transient activation of d6 myotubes"}]}]}
